Tests used:
[1] = Pharmacokinetic study Experiment #4, oral administration in rats; format: in vivo, rat; conditions: 10 mg EqEYP001/Kg, male rats
Description: In a fourth study (Experiment #4), EYP001, EYP001 L-lysine salt amorphous Form and EYP001 L-lysine salt Form VI in aqueous formulations (0.5% CMC, 0.25% Tween 80, water) were orally administrated at a dose of 10 mg EqEYP001/Kg in 8 male rats for each compound (4 rats on day 1 and 4 rats on day 2 for each compound). Blood samples were taken at 0.25 h, 0.5 h, 1 h, 2 h, 4 h, 6 h, 8 h, 12 h, and 24 h after oral administration.

[2] = Thermogravimetric analysis (TGA), mass losses upon heating; format: physicochemical; conditions: listed as EYP001 L-lysine salt (amorphous form)
Description: Thermogravimetric analysis was performed on a TA Instruments TGA Hi-Res 2950 apparatus equipped with an evolved gas analysis furnace. A sample was placed in an opened aluminium basket and analysed according to the following conditions: […]

[3] = Polymorph screening (solids analysed by XRPD); format: physicochemical; conditions: amorphous material as starting material
Description: A polymorph screening was performed on EYP001 L-lysine salt crystalline form I (form I as starting material unless otherwise specified).
A number of unique materials with different patterns were produced, including crystalline forms I-IV and an amorphous material. All solids from the screening experiments were analysed by XRPD analysis and the resulting patterns compared to that of the reference. The observed solids and their ways of obtention are described in Table 16.

[4] = Solubility kinetics in FeSSIF medium; format: physicochemical; conditions: for Soluble fraction: 37 ° C.
Description: The solubility kinetics of the salt forms as well as the native EYP001 free acid form were determined in FaSSIF and FeSSIF media, and in a pH 4.5 acetate buffer as detailed below: The samples were prepared by adding an excess of each tested bulk (salt or native EYP001) to a given volume of test medium. […] In FaSSIF medium, the soluble concentration was assessed after 24 hours of stirring. […] At each time point, the “supernatant” was isolated and diluted in a solvent mixture allowing its injection into the chromatographic system. The concentration in solution in the test medium was determined by HPLC with external standardization.

[5] = Stability of freeze-dried amorphous material under ambient conditions; format: physicochemical
Description: The amorphous material was also prepared by freeze drying of EYP001 L-lysine salt (form I). EYP001 L-lysine salt (form I) was dissolved in CH3CN/H2O (62:38 v:v) at a concentration of 20 mg/mL. Then the solution was freeze-dried to form amorphous EYP001 L-lysine salt. This amorphous material was found stable over at least 19 days under ambient conditions.

[6] = Solubility kinetics in pH 4.5 acetate buffer; format: physicochemical; conditions: 37 ° C.
Description: The solubility kinetics of the salt forms as well as the native EYP001 free acid form were determined in FaSSIF and FeSSIF media, and in a pH 4.5 acetate buffer as detailed below:
The samples were prepared by adding an excess of each tested bulk (salt or native EYP001) to a given volume of test medium. The suspension was stirred by orbital stirring over 1 hour (in both pH 4.5 acetate buffer and FeSSIF medium) or 24 hours (inFaSSIF medium) at 37° C., protected from light.
In pH 4.5 acetate buffer, the soluble concentration was assessed after 0.5 hour and 1 hour of stirring.
At each time point, the “supernatant” was isolated and diluted in a solvent mixture allowing its injection into the chromatographic system. The concentration in solution in the test medium was determined by HPLC with external standardization.

[7] = Dynamic Vapor Sorption (DVS) analysis (gas water sorption); format: physicochemical
Description: The dynamic vapor sorption (DVS) analysis (gas water sorption) was performed on a DVS-Intrinsic incubator (SMS Ltd), equipped with DVS-Intrinsic Control Software 1.0. The sample, placed in an aluminium basket holder, was submitted to a full-cycle analysis (sorption followed by desorption cycle) under the following conditions:
The sample was first pre-dried under a stream of dry air until a stabilized sample mass was observed. Then, the relative humidity was increased by 5% increments. At each step, the sample mass was allowed to increase until equilibrium is reached (according to a given dm/dt target), and then a new relative humidity rise occurred. Relative humidity was ramped up to 95%. After equilibration at this point, desorption began in a similar stepwise manner, with sample mass decrease again allowed to stabilize after each incremental humidity decrease.
With both segments of the above-described method, the sample mass recording allowed describing of the whole vapor water sorption/desorption behaviour versus relative humidity.

[8] = Pharmacokinetic study Experiment #1, oral administration in rats; format: in vivo, rat; conditions: rat, in vivo, 50 mg EqEYP001/Kg, male rats, aqueous formulation
Description: (§1) In a first study (Experiment #1), EYP001, EYP001 Meglumine salt, and EYP001 L-lysine salt Form I in aqueous formulations (0.5% CMC, 0.25% Tween 80, water) were orally administrated at a dose of 50 mg EqEYP001/Kg in 3 male rats for each compound. Blood samples were taken at 0.25 h, 0.5 h, 1 h, 2 h, 4 h, 6 h, 8 h, 12 h, and 24 h after oral administration.

[9] = Pharmacokinetic study Experiment #2, oral administration in rats; format: in vivo, rat; conditions: rat, in vivo, 50 mg EqEYP001/Kg, male rats, aqueous formulation
Description: as §1, with “second” for “first”, “#2),” for “#1), EYP001,”, “EYP001” for “EYP001 Meglumine salt,”, “8” for “3”

[10] = Pharmacokinetic study Experiment #3, oral administration in rats; format: in vivo, rat; conditions: rat, plasma, 10 mg EqEYP001/Kg, male rats, aqueous formulation
Description: as §1, with “third” for “first”, “#3),” for “#1), EYP001,”, “EYP001” for “EYP001 Meglumine salt,”, “10” for “50”, “6-8” for “3”

[11] = Solubility kinetics in FaSSIF medium; format: physicochemical; conditions: after 24 h
Description: The solubility kinetics of the salt forms as well as the native EYP001 free acid form were determined in FaSSIF and FeSSIF media, and in a pH 4.5 acetate buffer as detailed below: The samples were prepared by adding an excess of each tested bulk (salt or native EYP001) to a given volume of test medium. The suspension was stirred by orbital stirring over 1 hour (in both pH 4.5 acetate buffer and FeSSIF medium) or 24 hours ([…] medium) at 37° C., protected from light. In FaSSIF medium, the soluble concentration was assessed after 24 hours of stirring. […] At each time point, the “supernatant” was isolated and diluted in a solvent mixture allowing its injection into the chromatographic system. The concentration in solution in the test medium was determined by HPLC with external standardization.

[12] = aqueous formulation, listed as EYP001 L-lysine salt (Amorphous Form)
[13] = versus EYP001 free acid, listed as EYP001 L-lysine salt (Amorphous Form)
[14] = Entry 4*: no solvent, 23% RH stress
[15] = Entry 5*: no solvent, 40° C./75% RH stress
[16] = Entry 6*: no solvent, 59% RH stress
[17] = Entry 11*: THF, flash evaporation
[18] = after 0.5 h, listed as EYP001 L-Lysine salt (Amorphous form)
[19] = after 1 h, listed as EYP001 L-Lysine salt (Amorphous form)

NCCCC[C@H](N)C(=O)O.O=C(O)c1cc2c(Cl)c(N3CCN(S(=O)(=O)c4c(Cl)cccc4Cl)CC3)ccc2o1 [EYP001 L-lysine salt amorphous form, L-lysine salt of 4-chloro-5-[4-(2,6-dichlorophenyl)sulfonylpiperazin-1-yl]-1-benzofuran-2-carboxylic acid]
Mean AUClast [1, 12]: 4764.7 ng·h/mL
Mean Cmax [1, 12]: 2130.0 ng/mL
% increase/EYP001 (AUClast) [1, 13]: +41.1%
% increase/EYP001 (Cmax) [1, 13]: +47.4%
onset temperature of thermal decomposition (TGA) ([2]; heater ramp 10 ° C./min, nitrogen): 241 °C
mass loss before the beginning of thermal decomposition (TGA) ([2]; upon heating): 2.4%
Results [3, 14]: solid
XRPD [3, 14]: Amorphous
Results [3, 15]: solid
XRPD [3, 15]: Form I
Results [3, 16]: solid
XRPD [3, 16]: Form I
Results ([3]; Entry 9*: no solvent, milling): solid
XRPD ([3]; Entry 9*: no solvent, milling): Amorphous
Results [3, 17]: solid
XRPD [3, 17]: Amorphous
Soluble fraction [4, 18]: 1.12 mg/mL of EYP001
Soluble fraction [4, 19]: 1.13 mg/mL of EYP001
Soluble fraction ([4]; after 2 h, listed as EYP001 L-Lysine salt (Amorphous form)): 1.12 mg/mL of EYP001
Soluble fraction ([4]; after 24 h, listed as EYP001 L-Lysine salt (Amorphous form)): 1.11 mg/mL of EYP001
pH ([4]; pH printed with the soluble fraction, after 0.5 h, listed as EYP001 L-Lysine salt (Amorphous form)): (pH = 4.9)
pH ([4]; pH printed with the soluble fraction, after 1 h, listed as EYP001 L-Lysine salt (Amorphous form)): (pH = 4.9)
pH ([4]; pH printed with the soluble fraction, after 24 h, listed as EYP001 L-Lysine salt (Amorphous form)): (pH = 5.0)
time found stable [5]: at least 19 days
Soluble fraction [6, 18]: 0.029 mg/mL of EYP001
Soluble fraction [6, 19]: 0.023 mg/mL of EYP001
stability at high relative humidity (DVS) ([7]; 25° C.): unstable at high relative humidity
mass loss during preliminary drying phase ([7]; 25° C./0% RH before sorption): 2.6%
water uptake upon sorption (DVS) ([7]; 25° C./40% RH): 3.5 % wt.
water uptake (DVS) ([7]; 25° C./60% RH, listed as EYP001 L-Lysine salt amorphous form): 6.8%
water uptake upon sorption (DVS) ([7]; 25° C./75% RH): 11.5 % wt.
water uptake upon sorption (DVS), after drastic decrease ([7]; 25° C./95% RH): 4 % wt.
maximum hysteresis sorption/desorption ([7]; 25° C., listed as EYP001 L-Lysine salt amorphous form): 10.3%
mass below the initial mass after desorption ([7]; back to 25° C./0% RH after full cycle): about 1.3 % wt.
hygroscopicity (DVS) ([7]; hygroscopic above 2% mass gain at 25° C./60% RH, listed as EYP001 L-Lysine salt amorphous form): hygroscopic

O=C(O)c1cc2c(Cl)c(N3CCN(S(=O)(=O)c4c(Cl)cccc4Cl)CC3)ccc2o1 [EYP001, 4-chloro-5-[4-(2,6-dichlorophenyl)sulfonylpiperazin-1-yl]-1-benzofuran-2-carboxylic acid]
Cmax ([1]; rat, in vivo, aqueous formulation): 1440 ng/mL
AUC(0-t) ([1]; rat, in vivo, aqueous formulation, read-out: Mean AUClast): 3380 ng·h/mL
Cmax [8]: 6990 ng/mL
AUC(0-t) ([8]; read-out: Mean AUC0-24): 52300 ng·h/mL
Cmax [9]: 5580 ng/mL
AUC(0-t) ([9]; read-out: Mean AUC0-24): 29000 ng·h/mL
Soluble fraction ([4]; after 0.5 h): 0.38 mg/mL of EYP001
Soluble fraction ([4]; after 1 h): 0.45 mg/mL of EYP001
Soluble fraction ([4]; after 2 h): 0.51 mg/mL of EYP001
Soluble fraction ([4]; after 24 h): 0.62 mg/mL of EYP001
pH ([4]; pH given with the soluble fraction, after 0.5 h): (pH = 4.9)
pH ([4]; pH given with the soluble fraction, after 1 h): (pH = 6.4)
pH ([4]; pH given with the soluble fraction, after 2 h): (pH = 4.9)
pH ([4]; pH given with the soluble fraction, after 24 h): (pH = 4.9)
Cmax [10]: 1350 ng/mL
AUC(0-t) ([10]; read-out: Mean AUC0-24): 3970 ng·h/mL
Soluble fraction ([6]; after 0.5 h): 0.004 mg/mL of EYP001
Soluble fraction ([6]; after 1 h): 0.003 mg/mL of EYP001
Soluble fraction ([11]; 37° C.): 0.20 mg/mL of EYP001
pH ([11]; pH given with the soluble fraction): 6.4

Reference: patent US20250019370A1, “L-LYSINE SALT OF 4-CHLORO-5-[4-(2,6-DICHLOROPHENYL)SULFONYLPIPERAZIN-1-YL]-1-BENZOFURAN-2-CARBOXYLIC ACID AND VARIOUS FORMS THEREOF” (ENYO PHARMA, priority 2023, published 2025)
